Experimental data taken from EP0163240A2, “Dihydroimidazo[1,2-a]pyrimidine derivatives, methods of preparing said compounds and pharmaceutical compositions constaining said compounds” (priority 1984, dated 1985).
Structures can show the parent of a compound that is named as a salt. Where two headings read alike, the source gives them in different places.

Columns and labels:
vertebral blood flow = assay: Effect on vertebral blood flow; type: in vivo, Adult mongrel dogs; conditions: for ED100: dose required to obtain 100% of the increase of blood flow by 100 µg of papaverine hydrochloride, injected in the vertebral artery, anesthetized dogs; for T 1/2: half-life measured as the duration of effects on vertebral blood flow
Description: Pharmacological experiment 3: Effect on vertebral blood flow Adult mongrel dogs were anesthetized with sodium pentobarbital (25 mg/kg, i.v.). The right vertebral artery was perfused and the blood flow was measured. Test compound was injected in the vertebral artery. […] Half-life (T 1/2, minute) was measured as the duration of effects.

coronary blood flow = assay: Effect on coronary blood flow; type: in vivo, Adult mongrel dogs; conditions: for ED50: dose required to increase the coronary blood flow by a half of the effects of nifedipine, injected into the coronary artery, anesthetized dogs; for T 1/2: half-life measured as the duration of effects on coronary blood flow
Description: Pharmacological experiment 2: Effect on coronary blood flow Adult mongrel dogs were anesthetized with sodium pentobarbital (30 mg/kg, i.v.). According to the method of Yago et al described in Folia Pharmacol. Japon, vol. 57, 380 (1961), the left coronary artery was perfused and its blood flow was measured. […] The half-life (T 1/2, minute) was measured as the duration of effects.

liver mitochondria = assay: Effect on lipid peroxidation (malondialdehyde formation in liver mitochondria, thiobarbituric acid method); type: biochemical, Male Sprague-Dawley rats; conditions: 50% inhibitory concentration on the formation of malondialdehyde; ascorbic acid, ferrous sulfate; 25°C for 30 minutes
Description: Pharmacological experiment 4: Effect on lipid peroxidation
Male Sprague-Dawley rats weighing 300-350 g were used. According to the method of Shimada et al described in Biochim. Biophys. Acta, vol. 572, 531 (1979), the liver mitochondria were isolated and ascorbic acid, ferrous sulfate, potassium chloride and Tris-HC1 buffer were added. To the solution was added test compound dissolved in dimethyl sulfoxide, and the mixture was incubated at 25°C for 30 minutes. The amount of malondialdehyde was determined by the thiobarbituric acid method and the 50% inhibitory concentration (IC50, µmol) of test compound on the formation of malondialdehyde was measured.

ddY strain mice = type: in vivo
Text: (§1) Pharmacological experiment 7: Toxicity
Test compounds A, B, C, E and S were orally administered to five ddY strain mice.

Trachea of guinea pig = assay: Anticholinergic activity (ACh-contracted tracheal strip chain preparation); conditions: for IC50: Cavia porcellus, read-out: 50% inhibitory concentration (IC50) on ACh-induced contraction
Description: Each of 30 mg/kg of test compounds A and Q was orally administered to five male spontaneously hypertensive rats and the blood pressure was measured by the tail cuff method. The blood pressure lowering value after 1 hour administration of test compound A was 48 mmHg and that value after 5 hours administration of test compound Q was 64 mmHg. Pharmacological experiment 6: Anticholinergic activity
Trachea of guinea pig, weighing 380-550 g, was isolated and prepared its strip chain preparation. The preparation was mounted in organ bath filled with Krebs-Henseleit solution gassed with 95% 02 and 5% CO2. Length of the preparation was measured by isometric transducer (MEC, ME-4012). The preparation was contracted by 10^-6 M of acetylcholine (ACh) and then, test compounds were added cumulatively into the bath to observe relaxant effect.
as §1

[1] = preparation contracted by 10^-6 M of acetylcholine (ACh), cumulative addition
[2] = oral dose of 1000 mg/kg, five mice

Structure (SMILES) | ED100 (vertebral blood flow) [µg] | T 1/2 (vertebral blood flow) [min] | ED50 (coronary blood flow) [µg] | T 1/2 (coronary blood flow) [min] | IC50 (liver mitochondria) [nM] | other results
CCCCNCc1cnc2n1C(c1cccc([N+](=O)[O-])c1)C(C(=O)OCC)=C(C)N2.Cl.Cl (centres unmarked) [Compound O, Ethyl 3-butylaminomethyl-7-methyl-5-(3-nitrophenyl)-5,8-dihydroimidazo[1,2-a]pyrimidine-6-carboxylate dihydrochloride] | 15 | 0.7 | – | – | – | –
CCOC(=O)C1=C(C)Nc2ncc(N3CCCC3)n2C1c1cccc([N+](=O)[O-])c1 (stereo not drawn) [Compound D, Ethyl 7-methyl-5-(3-nitrophenyl)-3-(l-pyrrolidinyl)-5,8-dihydroimidazo[1,2-a]pyrimidine-6-carboxylate] | – | – | 8 | 1.3 | 200 | –
CCOCc1cnc2n1C(c1cccc([N+](=O)[O-])c1)C(C(=O)OCC)=C(C)N2 (centres unmarked) [Compound G, Ethyl 3-ethoxymethyl-7-methyl-5-(3-nitrophenyl)-5,8-dihydroimidazo[1,2-a]pyrimidine-6-carboxylate] | – | – | 7 | 1.0 | 10000 | –
CCOC(=O)C1=C(C)Nc2ncc(N(CC)CC)n2C1c1cccc([N+](=O)[O-])c1 (centres unmarked) [Compound F, Ethyl 3-diethylamino-7-methyl-5-(3-nitrophenyl)-5,8-dihydroimidazo[1,2-a]pyrimidine-6-carboxylate] | – | – | 12 | 1.0 | 2000 | –
CCOC(=O)C1=C(C)Nc2ncc(CN(CC)CC)n2C1c1ccccc1[N+](=O)[O-].Cl.Cl.O (centres unmarked) [Compound I, Ethyl 3-diethylaminomethyl-7-methyl-5-(2-nitrophenyl)-5,8-dihydroimidazo[1,2-a]pyrimidine-6-carboxylate dihydrochloride monohydrate] | – | – | 10 | 2.0 | – | –
CCOC(=O)C1=C(C)Nc2ncc(CN(C)Cc3ccccc3)n2C1c1cccc([N+](=O)[O-])c1.Cl.Cl.O (centres unmarked) [Compound C, Ethyl 3-(N-benzyl-N-methylamino)methyl-7-methyl-5-(3-nitrophenyl)-5,8-dihydroimidazo[1,2-a] pyrimidine-6-carboxylate dihydrochloride monohydrate] | 5 | 1.5 | 10 | 1.5 | – | survival (ddY strain mice; mouse, in vivo, po, 1000 mg/kg): All mice were survived
CN1[C@@H]2CC[C@H]1C[C@@H](OC(=O)C(CO)c1ccccc1)C2 (some centres unmarked) [atropine, reference compound] | – | – | – | – | – | IC50 (Trachea of guinea pig): 0.74 nM
CCOC(=O)C1=C(C)Nc2ncc(CN(CC)CC)n2C1c1cccc([N+](=O)[O-])c1 (centres unmarked) [Compound B, Ethyl 3-diethylaminomethyl-7-methyl-5-(3-nitrophenyl)-5,8-dihydroimidazo[l,2-a]pyrimidine-6-carboxylate hydrochloride] | 10 | 0.8 | 3 | 1.5 | 20000 | relaxant effect on ACh-contracted preparation (Trachea of guinea pig; 10^-7-10^-5M): relaxed ACh-contracted preparation in a concentration-dependent manner; IC50 (Trachea of guinea pig; [1]): 4000 nM; survival (ddY strain mice; mouse, in vivo, po, 1000 mg/kg): All mice were survived
CCCN(CCC)Cc1cnc2n1C(c1cccc([N+](=O)[O-])c1)C(C(=O)OC)=C(C)N2 (centres unmarked) [Compound H, Methyl 3-dipropylaminomethyl-7-methyl-5-(3-nitrophenyl)-5,8-dihydroimidazo[1,2-a]pyrimidine-6-carboxylate] | 2 | 1.0 | 7 | 1.0 | – | –
COC(=O)C1=C(C)Nc2ncc(CN3CCCC3)n2C1c1cccc([N+](=O)[O-])c1 (centres unmarked) [Compound P, Methyl 7-methyl-5-(3-nitrophenyl)-3-(1-pyrrolidinylmethyl)-5,8-dihydroimidazo[1,2-a] pyrimidine-6-carboxylate dihydrochloride] | 6 | 0.6 | – | – | – | IC50 (Trachea of guinea pig; [1]): 2300 nM
CCOC(=O)C1=C(C)Nc2ncc([N+](=O)[O-])n2C1c1ccccc1C(F)(F)F (centres unmarked) [Compound M, Ethyl 7-methyl-3-nitro-5-(2-trifluoromethylphenyl)-5,8-dihydroimidazo[1,2-a]pyrimidine-6-carboxylate] | – | – | 5 | 1.0 | – | –
CCOC(=O)C1=C(C)Nc2ncc(N(C)Cc3ccccc3)n2C1c1cccc([N+](=O)[O-])c1 (centres unmarked) [Compound R, Ethyl 7-methyl-5-(3-nitrophenyl)-3-(N-benzyl-N-methyl)amino-5,8-dihydroimidazo[1,2-a]pyrimidine-6-carboxylate] | – | – | – | – | 700 | –
CCOC(=O)C1=C(C)Nc2ncc(CNCc3ccccc3)n2C1c1cccc([N+](=O)[O-])c1.Cl.Cl (centres unmarked) [Compound N, Ethyl 3-benzylaminomethyl-7-methyl-5-(3-nitrophenyl)-5,8-dihydroimidazo[1,2-a]pyrimidine-6-carboxylate dihydrochloride] | 10 | 0.7 | – | – | – | –
COC(=O)C1=C(C)Nc2ncc(CNc3ccccc3C(F)(F)F)n2C1c1cccc([N+](=O)[O-])c1 (centres unmarked) [Compound S, Methyl 7-methyl-5-(3-nitrophenyl)-3-(2-trifluoromethylphenyl)aminomethyl-5,8-dihydroimidazo[1,2-a]pyrimidine-6-carboxylate] | – | – | – | – | – | survival (ddY strain mice; [2]): All mice were survived
COC(=O)C1=C(C)Nc2ncc(COC(C)C)n2C1c1cccc([N+](=O)[O-])c1 (centres unmarked) [Compound L, Methyl 3-isopropoxymethyl-7-methyl-5-(3-nitrophenyl)-5,8-dihydroimidazo[1,2-a]pyrimidine-6-carboxylate] | – | – | 5 | 1.0 | – | –
CCN(CC)Cc1cnc2n1C(c1ccccc1C(F)(F)F)C(C(=O)OC)=C(C)N2 (centres unmarked) [Compound E, Methyl 3-diethylaminomethyl-7-methyl-5-(2-trifluoromethylphenyl)-5,8-dihydroimidazo[1,2-a] pyrimidine-6-carboxylate] | – | – | 5 | 1.0 | 15000 | survival (ddY strain mice; [2]): All mice were survived
CCN(CC)Cc1cnc2n1C(c1cccc([N+](=O)[O-])c1)C(C(=O)OCCOC)=C(C)N2 (centres unmarked) [Compound J, 2-Methoxyethyl 3-diethylaminomethyl-7-methyl-5-(3-nitrophenyl)-5,8-dihydroimidazo[1,2-a]pyrimidine-6-carboxylate] | – | – | 5 | 1.7 | – | –
COC(=O)C1=C(C)Nc2ncc(CN(C(C)C)C(C)C)n2C1c1cccc([N+](=O)[O-])c1 (centres unmarked) [Compound K, Methyl 3-diisopropylaminomethyl-7-methyl-5-(3-nitrophenyl)-5,8-dihydroimidazo[1,2-a]pyrimidine-6-carboxylate] | – | – | 6 | 1.5 | – | –
